The values that follow come from patent US9494867B2, “Rinsing liquid for lithography and pattern forming method using same” (AZ ELECTRONIC MATERIALS (LUXEMBOURG) S.A.R.L., priority 2013, dated 2016).

Holding throughout (assay type): physicochemical
Data set [1] in a line: Measurement of maximum dissolution quantity in water. The settings on record: water of 25° C. As to the method:
Different amounts of an additive agent for a rinse solution are added between transparent screws and in each cases water is further added as the total amount of the additive agent and water is made 100 g. These are mixed at 25° C. for 10 hours or more by using a stealer and left at rest for some time at this temperature. The state of dissolution thereof is observed by eyes and the maximum amount of the additive agent wherein insoluble matter is not observed in the solution is defined as a maximum dissolution quantity (ppm).

The nature of data set [2]: Storage stability test of rinse solution. The settings on record: additive concentrations more than 3,000 ppm. More on the design: key: when the defect number of the test rinse solution is equal to or less than that of the rinse solution of the deionized water, it is evaluated as ‘O’; when the number is more than that of the deionized water, it is evaluated as ‘X’. On the procedure:
A rinse solution prepared in a predetermined concentration is filtered through a filter and left at rest at 25° C. for one month. A chemically amplified KrF resist composition AZ DX6270P manufactured by AZ Electronic Materials Manufacturing (Japan) K. K. is spin-coated on a silicon wafer and soft-baked at 120° C. for 90 seconds to form a resist film of 620 nm in thickness. The rinse solution after preservation is applied on the resist film and the wafer is rotated at a very high speed to dry it. The total defect numbers of all defects including gel defects and particle defects on this film are measured using a defect inspection apparatus KLA2360 manufactured by KLA Tencor corporation. The number of defects when the preserved test rinse solution is used as a rinse solution is compared with that when the preserved rinse solution consisting of only a deionized water is used (see Comparative example 1) and when the defect number of the test rinse solution is equal to or less than that of the rinse solution of the deionized water, it is evaluated as ‘O’ and when the number is more than that of the deionized water, it is evaluated as ‘X’.

A short description of data set [3]: Measurement of surface tension of rinse solution. As to conditions: rinse solution containing 1,000 ppm of the additive. On the procedure:
A surface tension measurement of a prepared rinse solution was conducted using the surface tensiometer CBVP-Z manufactured by Kyowa interface science Co., LTD.

In the case of `CC(O)C#CC(C)O` (stereo not shown) [HXYD, 3-hexyne-2,5-diol], the “Maximum dissolution quantity of additives in water” value (“Maximum dissolution quantity” for short) in data set [1] is given as >10,000 ppm.
The same measure, in the same setting: then `CC(C)(O)C#CC(C)(C)O` [DMHD, 2,5-dimethyl-3-hexyne-2,5-diol], with >10,000 ppm.
Regarding `CCC(C)(O)C#CC(C)(O)CC` (stereo not shown) [DMOD, 3,6-dimethyl-4-octyn-3,6-diol], in data set [1], the “Maximum dissolution quantity” value is listed as >10,000 ppm.
For the compound `OCc1cccc(CO)c1` [MXG, 1,3-benzendimethanol], in data set [1], the “Maximum dissolution quantity” value is reported as >10,000 ppm.
With `OCc1ccccc1CO` [OXG, 1,2-benzendimethanol], the “Maximum dissolution quantity” value in data set [1] is given as >10,000 ppm.
Take `CCOC(O)C#CC(O)OCC` (stereo not shown) [DODD, 3,8-dioxa-5-decyne-4,7-diol, reference compound]: in data set [1], the “Maximum dissolution quantity” value is recorded as >10,000 ppm. In addition, the Storage stabilities entry in data set [2] is reported as “X”.
Consider `OCC1CCC(CO)CC1` (stereo not shown) [CHDM, 1,4-cyclohexanedimethanol, reference compound], for which the “Maximum dissolution quantity” value in data set [1] is given as >10,000 ppm.
With `OCC#CCO` [BTD, 1,4-butynediol], the “Maximum dissolution quantity” value in data set [1] was >10,000 ppm.
Regarding `CC(O)C=CC(C)O` (stereo not shown) [HXED, 3-hexene-2,5-diol], the “Surface tension of the rinse solution” value in data set [3] turned out to be 66.5 mN/m.
In the case of `OCc1ccc(CO)cc1` [PXG, p-xylylene glycol], the “Maximum dissolution quantity” value in data set [1] was >10,000 ppm.
Same read-out and setting: the same measure for `OCC#CC#CCO` [HXDD, 2,4-hexadiyn-1,6-diol]: >10,000 ppm; for `OCCCCO` [1,4-butanediol, reference compound]: >10,000 ppm.
